{"source": "patent US20230263742A1", "about": "“A LIPID” (Stemirna Therapeutics Co., Ltd., priority 2021, published 2023)", "key": {"[1]": {"test": "Particle size, PDI and zeta potential by dynamic light scattering", "type": "physicochemical", "details": "for PDI / Zeta potential: Luc mRNA-LNP 50:10:38.5:1.5; for Size: Luc mRNA-LNP, lipid:phospholipid:cholesterol:PEG-DMG 50:10:38.5:1.5", "method": "A Zetasizer Nano ZS (Malvern Instruments Ltd, Malvern, Worcestershire, UK) can be used to determine the particle size, the polydispersity index (PDI) and the zeta (ζ) potential of the nanoparticle compositions in 1×PBS in determining particle size and 15 mM PBS in determining zeta (ζ) potential.\nThe evaluation method of particle size and zeta potential: 50 μL LNP sample was diluted with 950 μL purified water to obtain the diluted LNP sample. The sample was placed in a dynamic light scattering laser particle size analyzer (Malvern, ZS-90) for testing."}, "[2]": {"system": "cells", "test": "Cytotoxicity, CCK-8 cell viability", "type": "cell-based", "details": "200 ng LNP, 24 h, CCK-8, vs cells blank", "method": "Evaluation method of cytotoxicity: 200 ng of LNP samples were mixed with cells and incubated for 24 h, then the viability was detected using CCK-8 cell viability detection kit. 10 μl of CCK-8 detection reagent was added to the transfected cells and the OD value was detected using a microplate reader at a detection wavelength of 450 nm. The cell viability percentage is obtained by comparing the OD value with that of the cells blank."}, "[3]": {"system": "C2C12 cells", "test": "In vitro cell Luc expression, C2C12", "type": "cell-based", "details": "100 ng Luc mRNA-LNP, 24 h", "method": "(§1) In vitro cell expression evaluation method: C2C12 cells, HepG2 cells, A20 cells were cultured, and 100,000 cells per well were plated on a 96-well plate. 100 ng of LNP samples were mixed with the cells and incubated for 24 hours (n=3), and then the expression was detected using luciferase quantitative kit 24 h after administration."}, "[4]": {"system": "HepG2 cells", "test": "In vitro cell Luc expression, HepG2", "type": "cell-based", "details": "100 ng Luc mRNA-LNP, 24 h", "method": "as §1"}, "[5]": {"system": "A20 cells", "test": "In vitro cell Luc expression, A20", "type": "cell-based", "details": "100 ng Luc mRNA-LNP, 24 h", "method": "as §1"}, "[6]": {"system": "Balb/C mice", "test": "In vivo Luc expression after tail vein injection of Luc mRNA-LNP", "details": "5 μg Luc mRNA-LNP tail vein, 6 hours", "method": "In vivo expression evaluation method: 5 μg Luc (luciferase) mRNA-LNP solution of SW-II-118, SW-120, or SW-121 were injected into the tail vein of Balb/C mice. 6 hours after the administration, the mice are injected 0.15 mg/kg of […] substrate intraperitoneally. Within 15 minutes after the injection of the substrate, the fluorescence signal intensity was tested under a small animal in vivo imaging instrument."}, "[7]": {"system": "Balb/C mice", "test": "Luc expression in injection site and liver site after intramuscular administration (Example 5)", "type": "in vivo", "details": "5 μg Luc mRNA-LNP (DSPC) intramuscularly, Balb/C mice n=3, 6 h", "method": "Further bioluminescence studies were performed to investigate the delivery efficiency of nanoparticle compositions including various lipid compounds according to the present invention. The formulations containing reference cationic lipid M62, M63, M118, and M119 (corresponding to Compound 62, 63, 118, and 119 in PCT/US2018/022717 (WO2018/170306), respectively) were evaluated for comparison. Nanoparticle compositions including DSPC as an optimized phospholipid, cholesterol as a structural lipid, PEG-DMG as a PEG lipid, an RNA, and a compound above mentioned were prepared according to or via methods similar to those described in Examples 1 and 2. The ratios of the lipids were 50:10:38.5:1.5 mol % for the lipid of the present invention: DSPC: cholesterol: PEG-DMG. 5 μg of LNP solution containing luciferase mRNA was administered intramuscularly to Balb/C mice (n=3). 6 hours after administration, mice were injected intraperitoneally with 0.15 mg/kg of D-luciferin substrate. Within 15 minutes after the injection of the substrate, the fluorescence signal intensity in injection site and liver site were tested under a small animal in vivo imaging instrument. Tables 3-4 summarize the fluorescence signal intensity of the nanoparticle compositions including present invention lipids and the reference compounds in injection site and liver site."}}, "data": [{"smiles": "CCCCCCCCC(CCCCCCCC)OC(=O)CCCCCCCN(CCO)CCCCCCCC(=O)OCCc1ccc(CCCC)cc1", "note": "[SW-II-118]", "values": [{"measurement": "PDI", "setting": "[1]; phospholipid DAPC", "value": "0.28 ± 0.03"}, {"measurement": "Zeta potential", "setting": "[1]; phospholipid DAPC", "value": "−7.18 ± 0.42", "unit": "mV"}, {"measurement": "Size", "setting": "[1]; phospholipid DAPC", "value": "93.8 ± 1.6", "unit": "nm"}, {"measurement": "PDI", "setting": "[1]; phospholipid DMPE", "value": "0.29 ± 0.01"}, {"measurement": "Zeta potential", "setting": "[1]; phospholipid DMPE", "value": "−1.59 ± 0.19", "unit": "mV"}, {"measurement": "Size", "setting": "[1]; phospholipid DMPE", "value": "102.8 ± 2.3", "unit": "nm"}, {"measurement": "PDI", "setting": "[1]; phospholipid DOPE", "value": "0.10 ± 0.04"}, {"measurement": "Zeta potential", "setting": "[1]; phospholipid DOPE", "value": "−4.31 ± 1.36", "unit": "mV"}, {"measurement": "Size", "setting": "[1]; phospholipid DOPE", "value": "111.3 ± 2.0", "unit": "nm"}, {"measurement": "PDI", "setting": "[1]; phospholipid DPPC", "value": "0.26 ± 0.06"}, {"measurement": "Zeta potential", "setting": "[1]; phospholipid DPPC", "value": "−2.32 ± 0.32", "unit": "mV"}, {"measurement": "Size", "setting": "[1]; phospholipid DPPC", "value": "97.3 ± 2.6", "unit": "nm"}, {"measurement": "PDI", "setting": "[1]; phospholipid DPPE", "value": "0.54 ± 0.41"}, {"measurement": "Zeta potential", "setting": "[1]; phospholipid DPPE", "value": "−0.80 ± 0.58", "unit": "mV"}, {"measurement": "Size", "setting": "[1]; phospholipid DPPE", "value": "265.7 ± 306.1", "unit": "nm"}, {"measurement": "PDI", "setting": "[1]; phospholipid DSPC", "value": "0.37 ± 0.02"}, {"measurement": "Zeta potential", "setting": "[1]; phospholipid DSPC", "value": "−1.65 ± 0.58", "unit": "mV"}, {"measurement": "Size", "setting": "[1]; phospholipid DSPC", "value": "108.7 ± 2.5", "unit": "nm"}, {"measurement": "PDI", "setting": "[1]; phospholipid DSPE", "value": "0.21 ± 0.01"}, {"measurement": "Zeta potential", "setting": "[1]; phospholipid DSPE", "value": "−11.97 ± 1.19", "unit": "mV"}, {"measurement": "Size", "setting": "[1]; phospholipid DSPE", "value": "103.4 ± 2.0", "unit": "nm"}, {"measurement": "Viability (%)", "setting": "[2]; phospholipid DAPC", "value": 104.0, "unit": "%"}, {"measurement": "Viability (%)", "setting": "[2]; phospholipid DMPE", "value": 110.8, "unit": "%"}, {"measurement": "Viability (%)", "setting": "[2]; phospholipid DOPE", "value": 98.7, "unit": "%"}, {"measurement": "Viability (%)", "setting": "[2]; phospholipid DPPC", "value": 105.4, "unit": "%"}, {"measurement": "Viability (%)", "setting": "[2]; phospholipid DPPE", "value": 162.7, "unit": "%"}, {"measurement": "Viability (%)", "setting": "[2]; phospholipid DSPC", "value": 103.0, "unit": "%"}, {"measurement": "Viability (%)", "setting": "[2]; phospholipid DSPE", "value": 113.9, "unit": "%"}, {"measurement": "C2C12 cell, in vitro expression", "setting": "[3]; phospholipid DAPC", "value": 32703.5}, {"measurement": "C2C12 cell, in vitro expression", "setting": "[3]; phospholipid DMPE", "value": 218015.5}, {"measurement": "C2C12 cell, in vitro expression", "setting": "[3]; phospholipid DOPE", "value": 300431.5}, {"measurement": "C2C12 cell, in vitro expression", "setting": "[3]; phospholipid DPPC", "value": 260091}, {"measurement": "C2C12 cell, in vitro expression", "setting": "[3]; phospholipid DPPE", "value": 1254.5}, {"measurement": "C2C12 cell, in vitro expression", "setting": "[3]; phospholipid DSPC", "value": 80658}, {"measurement": "C2C12 cell, in vitro expression", "setting": "[3]; phospholipid DSPE", "value": 46290.5}, {"measurement": "HepG2 cell, in vitro expression", "setting": "[4]; phospholipid DAPC", "value": 6674}, {"measurement": "HepG2 cell, in vitro expression", "setting": "[4]; phospholipid DMPE", "value": 17608.5}, {"measurement": "HepG2 cell, in vitro expression", "setting": "[4]; phospholipid DOPE", "value": 17838.5}, {"measurement": "HepG2 cell, in vitro expression", "setting": "[4]; phospholipid DPPC", "value": 31083}, {"measurement": "HepG2 cell, in vitro expression", "setting": "[4]; phospholipid DPPE", "value": 86}, {"measurement": "HepG2 cell, in vitro expression", "setting": "[4]; phospholipid DSPC", "value": 11247.5}, {"measurement": "HepG2 cell, in vitro expression", "setting": "[4]; phospholipid DSPE", "value": 3053}, {"measurement": "A20 cell, in vitro expression", "setting": "[5]; phospholipid DAPC", "value": 5337}, {"measurement": "A20 cell, in vitro expression", "setting": "[5]; phospholipid DMPE", "value": 34438}, {"measurement": "A20 cell, in vitro expression", "setting": "[5]; phospholipid DOPE", "value": 2295}, {"measurement": "A20 cell, in vitro expression", "setting": "[5]; phospholipid DPPC", "value": 12326.5}, {"measurement": "A20 cell, in vitro expression", "setting": "[5]; phospholipid DPPE", "value": 1627.5}, {"measurement": "A20 cell, in vitro expression", "setting": "[5]; phospholipid DSPC", "value": 9068}, {"measurement": "A20 cell, in vitro expression", "setting": "[5]; phospholipid DSPE", "value": 3748}, {"measurement": "In vivo expression", "setting": "[6]; phospholipid DAPC", "value": 8658333.3, "unit": "p/sec/cm^2/sr"}, {"measurement": "In vivo expression", "setting": "[6]; phospholipid DMPE", "value": 23780.0, "unit": "p/sec/cm^2/sr"}, {"measurement": "In vivo expression", "setting": "[6]; phospholipid DOPE", "value": 38066666.7, "unit": "p/sec/cm^2/sr"}, {"measurement": "In vivo expression", "setting": "[6]; phospholipid DPPC", "value": 34323333.3, "unit": "p/sec/cm^2/sr"}, {"measurement": "In vivo expression", "setting": "[6]; phospholipid DPPE", "value": 25176.7, "unit": "p/sec/cm^2/sr"}, {"measurement": "In vivo expression", "setting": "[6]; phospholipid DSPC", "value": 40156666.7, "unit": "p/sec/cm^2/sr"}, {"measurement": "In vivo expression", "setting": "[6]; phospholipid DSPE", "value": 25383333.3, "unit": "p/sec/cm^2/sr"}, {"measurement": "Luc expression in injection site, I.M. injection site, 6 h (ratio relative to SW-II-134-3 set as 1)", "setting": "[7]", "value": 1.450}, {"measurement": "Luc expression in liver site, Liver site upon I.M., 6 h (ratio relative to SW-II-137-1 set as 1)", "setting": "[7]", "value": 2.234}]}]}
